Data set [1] concerns Persicaria lapathifolia. The data set is described as follows: Herbicidal activity against Persicaria lapathifolia assessed as seedling death under green house at 0.5 kg/ha at 25 degC measured after 4 weeks. It is filed as functional, organism-based.
Data set [2] concerns Echinochloa crus-galli. The data set can be described thus: Herbicidal activity against Echinochloa crus-galli (barnyard grass) assessed as seedling death under green house at 0.5 kg/ha at 25 degC measured after 4 weeks. In kind it is functional, organism-based.
In data set [3] the test system is Digitaria ciliaris. The data set is described as follows: Herbicidal activity against Digitaria ciliaris assessed as seedling death under green house at 0.5 kg/ha at 25 degC measured after 4 weeks. It is filed as functional, organism-based.
Data set [4] relates to Persicaria lapathifolia. The data set can be described thus: Herbicidal activity against Persicaria lapathifolia assessed as seedling death under green house at 1 kg/ha at 25 degC measured after 4 weeks. In kind it is functional, organism-based.
Data set [5] has as its system Digitaria ciliaris. The data set is described as follows: Herbicidal activity against Digitaria ciliaris assessed as seedling death under green house at 1 kg/ha at 25 degC measured after 4 weeks. It is filed as functional, organism-based.
Data set [6] has as its system Echinochloa crus-galli. The data set is described as follows: Herbicidal activity against Echinochloa crus-galli (barnyard grass) assessed as seedling death under green house at 1 kg/ha at 25 degC measured after 4 weeks. It is filed as functional, organism-based.
The test system of data set [7] is Amaranthus viridis. The data set can be described thus: Herbicidal activity against Amaranthus viridis assessed as seedling death under green house at 0.5 kg/ha at 25 degC measured after 4 weeks. It is filed as functional, organism-based.
Data set [8] has as its system Amaranthus viridis. The data set can be described thus: Herbicidal activity against Amaranthus viridis assessed as seedling death under green house at 1 kg/ha at 25 degC measured after 4 weeks. In kind it is functional, organism-based.
For data set [9], the system named is Amaranthus viridis. The data set is described as follows: Herbicidal activity against Amaranthus viridis assessed as seedling death under green house at 4 kg/ha at 25 degC measured after 4 weeks. It is filed as functional, organism-based.
Data set [10] concerns Persicaria lapathifolia. The data set can be described thus: Herbicidal activity against Persicaria lapathifolia assessed as seedling death under green house at 4 kg/ha at 25 degC measured after 4 weeks. It is filed as functional, organism-based.
Data set [11] deals with Digitaria ciliaris. The data set is described as follows: Herbicidal activity against Digitaria ciliaris assessed as seedling death under green house at 4 kg/ha at 25 degC measured after 4 weeks. It is filed as functional, organism-based.
The test system of data set [12] is Gossypium hirsutum. The data set is described as follows: Toxicity in Gossypium hirsutum cv. Hakushuu (cotton) assessed as seedling death under green house at 0.5 kg/ha at 25 degC measured after 4 weeks by crop selectivity assay. It is filed as organism-based. To be noted: in vivo, 672 h.
The test system of data set [13] is Glycine max. The data set can be described thus: Toxicity in Glycine max cv. Tamahomare (soybean) assessed as seedling death under green house at 0.5 kg/ha at 25 degC measured after 4 weeks by crop selectivity assay. It is filed as organism-based. To be noted: in vivo, 672 h.

Active and inactive are the calls of the source. No cut-off for these calls is given here.

As for `CCc1ccc(N(C)C(=O)COc2onc(C(F)(F)F)c2C)cc1`, the outcome in data set [1] and in [4] was inactive. The outcome in data set [2], in data set [3], in data set [5] and in [6] was Active.

Turning to `Cc1c(C(F)(F)F)noc1OCC(=O)N(C)CC(C)C`, the result in [3], in data set [5] and in data set [6] was Active.

For the compound `Cc1c(C(F)(F)F)noc1OCC(=O)N(C)c1cccc(Br)c1`, the result in data set [2], in data set [3], in [5] and in data set [6] was Active.

`Cc1c(C(F)(F)F)noc1OCC(=O)N(c1ccccc1)C(C)C`: the result in data set [2], in [3], in data set [5] and in [6] was Active.

Turning to `Cc1c(C(F)(F)F)noc1OCC(=O)N(C)c1cccc(Cl)c1`, the result in [2], in [3], in data set [5] and in data set [6] was Active.

For `Cc1ccccc1N(C)C(=O)COc1onc(C(F)(F)F)c1C`, the result in [7], in [2], in data set [3], in data set [8], in [5] and in [6] was Active.

In the case of `CCc1ccccc1N(C)C(=O)COc1onc(C(F)(F)F)c1C`, the outcome in [1] and in data set [4] was inactive. The result in [3], in data set [5] and in data set [6] was Active.

As to `CCC(C)N(C)C(=O)COc1onc(C(F)(F)F)c1C` (stereo not given), the result in data set [2], in data set [3] and in [5] was Active.

As for `Cc1cccc(N(C)C(=O)COc2onc(C(F)(F)F)c2C)c1C`, the outcome in [1] was inactive. For the same compound, the outcome in data set [2], in [3], in [5] and in data set [6] was Active.

`CCc1cccc(N(C)C(=O)COc2onc(C(F)(F)F)c2C)c1`: the outcome in data set [7], in data set [2], in data set [3], in data set [8], in data set [5] and in data set [6] was Active.

For `CN(C(=O)COc1onc(-c2ccccc2)c1Br)c1ccccc1`, the result in [9] and in data set [10] was inactive.

For the compound `Cc1c(C(F)(F)F)noc1OCC(=O)N(C)c1ccc(Br)cc1`, the result in [7], in [1], in data set [8] and in data set [4] was inactive. The outcome in [3], in data set [5] and in data set [6] was Active.

Consider `Cc1c(C(F)(F)F)noc1OCC(=O)N(C)c1ccccc1C(C)C`, for which the result in [7], in data set [1], in data set [8] and in data set [4] was inactive. Also, the outcome in data set [5] and in data set [6] was Active.

As for `CCCN(C(=O)COc1onc(C(F)(F)F)c1C)c1ccccc1`, the result in [2], in data set [5] and in data set [6] was Active.

For the compound `CCCCCN(C(=O)COc1onc(C(F)(F)F)c1C)c1ccccc1`, the outcome in [9], in data set [10] and in [11] was inactive.

As to `Cc1cccc(N(C)C(=O)COc2onc(C(F)(F)F)c2C)c1`, the result in data set [7], in data set [2], in data set [3], in data set [8], in data set [5] and in [6] was Active.

`CCCCN(C)C(=O)COc1onc(C(F)(F)F)c1C`: in data set [1], the outcome was inactive.

With `COc1ccc(N(C)C(=O)COc2onc(C(F)(F)F)c2C)cc1`, the outcome in data set [7], in data set [2], in data set [3], in data set [8], in data set [5] and in [6] was Active. The result in data set [1] was inactive.

Consider `Cc1c(Cl)cccc1N(C)C(=O)COc1onc(C(F)(F)F)c1C`, for which the result in [2], in data set [3], in [5] and in data set [6] was Active.

With `CCc1noc(OCC(=O)N(C)c2ccccc2)c1-c1ccccc1`, in data set [10], the result was inactive.

Take `Cc1c(C(F)(F)F)noc1OCC(=O)N(C)c1ccccc1F`: the result in [7], in data set [2], in data set [3], in [8], in data set [5] and in data set [6] was Active.

Turning to `Cc1c(C(F)(F)F)noc1OCC(=O)N(C)c1c(Cl)cccc1Cl`, the outcome in [9] and in [10] was inactive.

Take `Cc1c(C(F)(F)F)noc1OCC(=O)N(C)c1ccc(F)cc1`: the outcome in [2], in [3], in data set [5] and in data set [6] was Active.

With `Cc1ccc(N(C)C(=O)COc2onc(C(F)(F)F)c2C)cc1`, the outcome in [2], in data set [3], in data set [8], in data set [5] and in data set [6] was Active.

`COc1cccc(N(C)C(=O)COc2onc(C(F)(F)F)c2C)c1`: the result in [2], in data set [3], in [8], in [5] and in data set [6] was Active.

Regarding `Cc1c(C(F)(F)F)noc1OCC(=O)N(C)c1ccc([N+](=O)[O-])cc1`, the outcome in [9] and in data set [10] was inactive.

For `Cc1c(C(F)(F)F)noc1OCC(=O)N(C)c1ccccc1I`, the result in [7], in [2], in data set [3], in data set [8], in data set [5] and in data set [6] was Active. Moreover, in data set [1], the result was inactive.

As for `Cc1c(C(F)(F)F)noc1OCC(=O)N(C)c1c(F)cccc1F`, the result in data set [1] and in data set [4] was inactive. Besides, the result in data set [6] was Active.

For `COc1ccccc1N(C)C(=O)COc1onc(C(F)(F)F)c1C`, the outcome in data set [2], in data set [3], in data set [5] and in data set [6] was Active.

For `CCc1c(C(F)(F)F)noc1OCC(=O)N(C)c1ccccc1`, the outcome in data set [2], in data set [3], in data set [8], in data set [5] and in [6] was Active. Also, the Activity result in data set [12] and in [13] was “Non-toxic” in each case.

`Cc1c(C(F)(F)F)noc1OCC(=O)N(C)c1ccc(Cl)cc1`: the outcome in data set [7], in data set [1], in data set [8] and in data set [4] was inactive. Moreover, the result in data set [5] and in [6] was Active.

Regarding `CCCc1ccc(N(C)C(=O)COc2onc(C(F)(F)F)c2C)cc1`, the result in data set [1] and in [4] was inactive. Further, the outcome in [2] and in [6] was Active.

Consider `Cc1c(C(F)(F)F)noc1OCC(=O)N(C)c1cccc([N+](=O)[O-])c1`, for which the result in [7] and in data set [1] was inactive. In addition, the result in data set [5] was Active.

On to `CN(C(=O)COc1cc(C(C)(C)C)no1)c1ccccc1`, for which the outcome in data set [9], in data set [10] and in data set [11] was inactive.

In the case of `CCN(C(=O)COc1onc(C(F)(F)F)c1C)c1ccccc1`, the outcome in data set [2], in [3], in data set [5] and in data set [6] was Active.

In the case of `Cc1ccc(C)c(N(C)C(=O)COc2onc(C(F)(F)F)c2C)c1`, the outcome in [1] and in data set [4] was inactive. Further, the result in data set [2] and in data set [6] was Active.

Source of the values: ChEMBL document CHEMBL3045011, “Synthesis and Herbicidal Activities of 2-(5-Isoxazolyloxy)-acetamide Derivatives” (J Pestic Sci, 1998).
